In ChEMBL document CHEMBL3046876, “Effect of Buprofezin on Oviposition of Brown Planthopper, Nilaparvata lugens, at Sub-lethal Dose” (1996):

Key:
Assay type in all cases: functional
Nilaparvata lugens [1] = test: Effect on hatchability in Nilaparvata lugens (brown planthopper) at 0.016 ppm measured after 7 days relative to control
Nilaparvata lugens [2] = test: Insecticidal activity against Nilaparvata lugens (brown planthopper) fifth-instar nymphs assessed as mortality at 0.00064 ppm measured after 7 days; details: 168 h
Nilaparvata lugens [3] = test: Effect on hatchability in Nilaparvata lugens (brown planthopper) at 0.4 ppm measured after 7 days relative to control
Nilaparvata lugens [4] = test: Insecticidal activity against Nilaparvata lugens (brown planthopper) fifth-instar nymphs assessed as mortality at 0.016 ppm measured after 7 days; details: 168 h
Nilaparvata lugens [5] = test: Insecticidal activity against Nilaparvata lugens (brown planthopper) assessed as mortality at 0.08 ppm measured after 7 days relative to control; details: 168 h
Nilaparvata lugens [6] = test: Effect on egg maturity in Nilaparvata lugens (brown planthopper) at 0.00064 ppm measured after 7 days relative to control
Nilaparvata lugens [7] = test: Insecticidal activity against Nilaparvata lugens (brown planthopper) emerged female adult assessed as mortality at 0.4 ppm measured after 7 days relative to control; details: 168 h
Nilaparvata lugens [8] = test: Effect on life span in Nilaparvata lugens (brown planthopper) adult at 0.4 ppm measured after 7 days relative to control
Nilaparvata lugens [9] = test: Insecticidal activity against Nilaparvata lugens (brown planthopper) emerged female adult assessed as mortality at 10 ppm measured after 7 days relative to control; details: 168 h
Nilaparvata lugens [10] = test: Insecticidal activity against Nilaparvata lugens (brown planthopper) assessed as mortality at 10 ppm measured after 7 days relative to control; details: 168 h
Nilaparvata lugens [11] = test: Insecticidal activity against Nilaparvata lugens (brown planthopper) fifth-instar nymphs assessed as mortality at 0.08 ppm measured after 7 days; details: 168 h
Nilaparvata lugens [12] = test: Insecticidal activity against Nilaparvata lugens (brown planthopper) assessed as mortality at 2 ppm measured after 7 days relative to control; details: 168 h
Nilaparvata lugens [13] = test: Effect on egg maturity in Nilaparvata lugens (brown planthopper) at 0.4 ppm measured after 7 days relative to control
Nilaparvata lugens [14] = test: Effect on hatchability in Nilaparvata lugens (brown planthopper) at 0.08 ppm measured after 7 days relative to control
Nilaparvata lugens [15] = test: Effect on life span in Nilaparvata lugens (brown planthopper) adult at 10 ppm measured after 7 days relative to control
Nilaparvata lugens [16] = test: Insecticidal activity against Nilaparvata lugens (brown planthopper) fifth-instar nymphs assessed as mortality at 0.4 ppm measured after 7 days; details: 168 h
Nilaparvata lugens [17] = test: Effect on hatchability in Nilaparvata lugens (brown planthopper) at 10 ppm measured after 7 days relative to control
Nilaparvata lugens [18] = test: Insecticidal activity against Nilaparvata lugens (brown planthopper) fifth-instar nymphs assessed as mortality at 0.0032 ppm measured after 7 days; details: 168 h
Nilaparvata lugens [19] = test: Insecticidal activity against Nilaparvata lugens (brown planthopper) assessed as mortality at 0.00064 ppm measured after 7 days relative to control; details: 168 h
Nilaparvata lugens [20] = test: Effect on oviposition in Nilaparvata lugens (brown planthopper) assessed as eggs laid at 0.0032 ppm measured after 7 days relative to control
Nilaparvata lugens [21] = test: Insecticidal activity against Nilaparvata lugens (brown planthopper) assessed as mortality at 0.000128 ppm measured after 7 days relative to control; details: 168 h
Nilaparvata lugens [22] = test: Effect on oviposition in Nilaparvata lugens (brown planthopper) assessed as eggs laid at 0.08 ppm measured after 7 days relative to control
Nilaparvata lugens [23] = test: Effect on egg maturity in Nilaparvata lugens (brown planthopper) at 0.016 ppm measured after 7 days relative to control
Nilaparvata lugens [24] = test: Effect on oviposition in Nilaparvata lugens (brown planthopper) assessed as eggs laid at 0.4 ppm measured after 7 days relative to control
Nilaparvata lugens [25] = test: Insecticidal activity against Nilaparvata lugens (brown planthopper) emerged female adult assessed as mortality at 0.016 ppm measured after 7 days relative to control; details: 168 h
Nilaparvata lugens [26] = test: Insecticidal activity against Nilaparvata lugens (brown planthopper) assessed as mortality at 50 ppm measured after 7 days relative to control; details: 168 h
Nilaparvata lugens [27] = test: Effect on oviposition in Nilaparvata lugens (brown planthopper) assessed as eggs laid at 2 ppm measured after 7 days relative to control
Nilaparvata lugens [28] = test: Insecticidal activity against Nilaparvata lugens (brown planthopper) assessed as mortality at 0.016 ppm measured after 7 days relative to control; details: 168 h
Nilaparvata lugens [29] = test: Effect on life span in Nilaparvata lugens (brown planthopper) adult at 0.00064 ppm measured after 7 days relative to control
Nilaparvata lugens [30] = test: Effect on development of ovarioles in Nilaparvata lugens (brown planthopper) assessed as number of ovarioles at 0.00064 ppm measured after 7 days relative to control
Nilaparvata lugens [31] = test: Effect on oviposition in Nilaparvata lugens (brown planthopper) assessed as eggs laid at 0.0000256 ppm measured after 7 days relative to control
Nilaparvata lugens [32] = test: Insecticidal activity against Nilaparvata lugens (brown planthopper) assessed as mortality at 0.4 ppm measured after 7 days relative to control; details: 168 h
Nilaparvata lugens [33] = test: Effect on oviposition in Nilaparvata lugens (brown planthopper) assessed as eggs laid at 0.016 ppm measured after 7 days relative to control
Nilaparvata lugens [34] = test: Insecticidal activity against Nilaparvata lugens (brown planthopper) emerged female adult assessed as mortality at 2 ppm measured after 7 days relative to control; details: 168 h
Nilaparvata lugens [35] = test: Effect on life span in Nilaparvata lugens (brown planthopper) adult at 0.016 ppm measured after 7 days relative to control
Nilaparvata lugens [36] = test: Effect on oviposition in Nilaparvata lugens (brown planthopper) assessed as eggs laid at 0.000128 ppm measured after 7 days relative to control
Nilaparvata lugens [37] = test: Insecticidal activity against Nilaparvata lugens (brown planthopper) emerged female adult assessed as mortality at 0.00064 ppm measured after 7 days relative to control; details: 168 h
Nilaparvata lugens [38] = test: Effect on development of ovarioles in Nilaparvata lugens (brown planthopper) assessed as number of ovarioles at 0.016 ppm measured after 7 days relative to control
Nilaparvata lugens [39] = test: Insecticidal activity against Nilaparvata lugens (brown planthopper) emerged female adult assessed as mortality at 0.0000256 ppm measured after 7 days relative to control; details: 168 h
Nilaparvata lugens [40] = test: Insecticidal activity against Nilaparvata lugens (brown planthopper) emerged female adult assessed as mortality at 0.08 ppm measured after 7 days relative to control; details: 168 h
Nilaparvata lugens [41] = test: Insecticidal activity against Nilaparvata lugens (brown planthopper) fifth-instar nymphs assessed as mortality at 50 ppm measured after 7 days; details: 168 h
Nilaparvata lugens [42] = test: Effect on oviposition in Nilaparvata lugens (brown planthopper) assessed as eggs laid at 0.00064 ppm measured after 7 days relative to control
Nilaparvata lugens [43] = test: Insecticidal activity against Nilaparvata lugens (brown planthopper) assessed as mortality at 0.0032 ppm measured after 7 days relative to control; details: 168 h
Nilaparvata lugens [44] = test: Insecticidal activity against Nilaparvata lugens (brown planthopper) fifth-instar nymphs assessed as mortality at 10 ppm measured after 7 days; details: 168 h
Nilaparvata lugens [45] = test: Insecticidal activity against Nilaparvata lugens (brown planthopper) emerged female adult assessed as mortality at 0.0032 ppm measured after 7 days relative to control; details: 168 h
Nilaparvata lugens [46] = test: Insecticidal activity against Nilaparvata lugens (brown planthopper) fifth-instar nymphs assessed as mortality at 0.000128 ppm measured after 7 days; details: 168 h
Nilaparvata lugens [47] = test: Insecticidal activity against Nilaparvata lugens (brown planthopper) assessed as mortality at 0.0000256 ppm measured after 7 days relative to control; details: 168 h
Nilaparvata lugens [48] = test: Insecticidal activity against Nilaparvata lugens (brown planthopper) emerged female adult assessed as mortality at 0.000128 ppm measured after 7 days relative to control; details: 168 h
Nilaparvata lugens [49] = test: Insecticidal activity against Nilaparvata lugens (brown planthopper) fifth-instar nymphs assessed as mortality at 0.0000256 ppm measured after 7 days; details: 168 h
Nilaparvata lugens [50] = test: Effect on development of ovarioles in Nilaparvata lugens (brown planthopper) assessed as number of ovarioles at 0.4 ppm measured after 7 days relative to control
Nilaparvata lugens [51] = test: Insecticidal activity against Nilaparvata lugens (brown planthopper) fifth-instar nymphs assessed as mortality at 2 ppm measured after 7 days; details: 168 h
Nilaparvata lugens [52] = test: Effect on hatchability in Nilaparvata lugens (brown planthopper) at 2 ppm measured after 7 days relative to control
Nilaparvata lugens [53] = test: Effect on oviposition in Nilaparvata lugens (brown planthopper) assessed as eggs laid at 10 ppm measured after 7 days relative to control

Compound: CC1(C)[C@H](C(=O)O[C@H](C#N)c2cccc(Oc3ccccc3)c2)[C@@H]1C=C(Br)Br [DELTAMETHRIN]
- Activity (Nilaparvata lugens [1]): 98%
- mortality at 0.00064 ppm (Nilaparvata lugens [2]): 0%
- Activity (Nilaparvata lugens [3]): 94%
- mortality at 0.016 ppm (Nilaparvata lugens [4]): 0%
- mortality at 0.08 ppm (Nilaparvata lugens [5]): 2%
- Activity (Nilaparvata lugens [6]): 110%
- mortality at 0.4 ppm (Nilaparvata lugens [7]): 0%
- Activity (Nilaparvata lugens [8]): 125%
- mortality at 10 ppm (Nilaparvata lugens [9]): 0%
- mortality at 10 ppm (Nilaparvata lugens [10]): 40%
- mortality at 0.08 ppm (Nilaparvata lugens [11]): 2%
- mortality at 2 ppm (Nilaparvata lugens [12]): 4%
- Activity (Nilaparvata lugens [13]): 113%
- Activity (Nilaparvata lugens [14]): 98%
- Activity (Nilaparvata lugens [15]): 112%
- mortality at 0.4 ppm (Nilaparvata lugens [16]): 9%
- Activity (Nilaparvata lugens [17]): 98%
- mortality at 0.0032 ppm (Nilaparvata lugens [18]): 0%
- mortality at 0.00064 ppm (Nilaparvata lugens [19]): 4%
- Activity (Nilaparvata lugens [20]): 136%
- mortality at 0.000128 ppm (Nilaparvata lugens [21]): 0%
- Activity (Nilaparvata lugens [22]): 112%
- Activity (Nilaparvata lugens [23]): 131%
- Activity (Nilaparvata lugens [24]): 124%
- mortality at 0.016 ppm (Nilaparvata lugens [25]): 9%
- mortality at 50 ppm (Nilaparvata lugens [26]): 100%
- Activity (Nilaparvata lugens [27]): 109%
- mortality at 0.016 ppm (Nilaparvata lugens [28]): 9%
- Activity (Nilaparvata lugens [29]): 120%
- Activity (Nilaparvata lugens [30]): 102%
- Activity (Nilaparvata lugens [31]): 107%
- mortality at 0.4 ppm (Nilaparvata lugens [32]): 9%
- Activity (Nilaparvata lugens [33]): 128%
- mortality at 2 ppm (Nilaparvata lugens [34]): 0%
- Activity (Nilaparvata lugens [35]): 102%
- Activity (Nilaparvata lugens [36]): 105%
- mortality at 0.00064 ppm (Nilaparvata lugens [37]): 4%
- Activity (Nilaparvata lugens [38]): 133%
- mortality at 2.56e-05 ppm (Nilaparvata lugens [39]): 4%
- mortality at 0.08 ppm (Nilaparvata lugens [40]): 0%
- mortality at 50 ppm (Nilaparvata lugens [41]): 100%
- Activity (Nilaparvata lugens [42]): 116%
- mortality at 0.0032 ppm (Nilaparvata lugens [43]): 0%
- mortality at 10 ppm (Nilaparvata lugens [44]): 40%
- mortality at 0.0032 ppm (Nilaparvata lugens [45]): 0%
- mortality at 0.000128 ppm (Nilaparvata lugens [46]): 0%
- mortality at 2.56e-05 ppm (Nilaparvata lugens [47]): 4%
- mortality at 0.000128 ppm (Nilaparvata lugens [48]): 0%
- mortality at 2.56e-05 ppm (Nilaparvata lugens [49]): 0%
- Activity (Nilaparvata lugens [50]): 114%
- mortality at 2 ppm (Nilaparvata lugens [51]): 4%
- Activity (Nilaparvata lugens [52]): 92%
- Activity (Nilaparvata lugens [53]): 101%

Compound: CC(C)N1C(=O)N(c2ccccc2)CS/C1=N\C(C)(C)C [BUPROFEZIN]
- Activity (Nilaparvata lugens [1]): 96%
- mortality at 0.00064 ppm (Nilaparvata lugens [2]): 0%
- Activity (Nilaparvata lugens [3]): 97%
- mortality at 0.016 ppm (Nilaparvata lugens [4]): 0%
- mortality at 0.08 ppm (Nilaparvata lugens [5]): 9%
- Activity (Nilaparvata lugens [6]): 98%
- mortality at 0.4 ppm (Nilaparvata lugens [7]): 13%
- Activity (Nilaparvata lugens [8]): 78%
- mortality at 10 ppm (Nilaparvata lugens [9]): 57%
- mortality at 10 ppm (Nilaparvata lugens [10]): 95%
- mortality at 0.08 ppm (Nilaparvata lugens [11]): 0%
- mortality at 2 ppm (Nilaparvata lugens [12]): 69%
- Activity (Nilaparvata lugens [13]): 100%
- Activity (Nilaparvata lugens [14]): 98%
- Activity (Nilaparvata lugens [15]): 28%
- mortality at 0.4 ppm (Nilaparvata lugens [16]): 7%
- mortality at 0.0032 ppm (Nilaparvata lugens [18]): 0%
- mortality at 0.00064 ppm (Nilaparvata lugens [19]): 0%
- Activity (Nilaparvata lugens [20]): 115%
- mortality at 0.000128 ppm (Nilaparvata lugens [21]): 11%
- Activity (Nilaparvata lugens [22]): 111%
- Activity (Nilaparvata lugens [23]): 106%
- Activity (Nilaparvata lugens [24]): 79%
- mortality at 0.016 ppm (Nilaparvata lugens [25]): 3%
- mortality at 50 ppm (Nilaparvata lugens [26]): 100%
- Activity (Nilaparvata lugens [27]): 36%
- mortality at 0.016 ppm (Nilaparvata lugens [28]): 3%
- Activity (Nilaparvata lugens [29]): 106%
- Activity (Nilaparvata lugens [30]): 103%
- Activity (Nilaparvata lugens [31]): 97%
- mortality at 0.4 ppm (Nilaparvata lugens [32]): 19%
- Activity (Nilaparvata lugens [33]): 92%
- mortality at 2 ppm (Nilaparvata lugens [34]): 69%
- Activity (Nilaparvata lugens [35]): 101%
- Activity (Nilaparvata lugens [36]): 117%
- mortality at 0.00064 ppm (Nilaparvata lugens [37]): 0%
- Activity (Nilaparvata lugens [38]): 106%
- mortality at 2.56e-05 ppm (Nilaparvata lugens [39]): 0%
- mortality at 0.08 ppm (Nilaparvata lugens [40]): 9%
- mortality at 50 ppm (Nilaparvata lugens [41]): 100%
- Activity (Nilaparvata lugens [42]): 88%
- mortality at 0.0032 ppm (Nilaparvata lugens [43]): 0%
- mortality at 10 ppm (Nilaparvata lugens [44]): 89%
- mortality at 0.0032 ppm (Nilaparvata lugens [45]): 0%
- mortality at 0.000128 ppm (Nilaparvata lugens [46]): 0%
- mortality at 2.56e-05 ppm (Nilaparvata lugens [47]): 0%
- mortality at 0.000128 ppm (Nilaparvata lugens [48]): 11%
- mortality at 2.56e-05 ppm (Nilaparvata lugens [49]): 0%
- Activity (Nilaparvata lugens [50]): 107%
- mortality at 2 ppm (Nilaparvata lugens [51]): 0%
- Activity (Nilaparvata lugens [52]): 74%
- Activity (Nilaparvata lugens [53]): 0%
